Results reported in patent US20230167073A1 (Teijin Pharma Limited, priority 2020, published 2023).

Target: T1, Human TRPC6 (Homo sapiens, UniProt Q9Y210)
T1 construct: expressed in transfected cells
T1 sequence (Q9Y210 1-931): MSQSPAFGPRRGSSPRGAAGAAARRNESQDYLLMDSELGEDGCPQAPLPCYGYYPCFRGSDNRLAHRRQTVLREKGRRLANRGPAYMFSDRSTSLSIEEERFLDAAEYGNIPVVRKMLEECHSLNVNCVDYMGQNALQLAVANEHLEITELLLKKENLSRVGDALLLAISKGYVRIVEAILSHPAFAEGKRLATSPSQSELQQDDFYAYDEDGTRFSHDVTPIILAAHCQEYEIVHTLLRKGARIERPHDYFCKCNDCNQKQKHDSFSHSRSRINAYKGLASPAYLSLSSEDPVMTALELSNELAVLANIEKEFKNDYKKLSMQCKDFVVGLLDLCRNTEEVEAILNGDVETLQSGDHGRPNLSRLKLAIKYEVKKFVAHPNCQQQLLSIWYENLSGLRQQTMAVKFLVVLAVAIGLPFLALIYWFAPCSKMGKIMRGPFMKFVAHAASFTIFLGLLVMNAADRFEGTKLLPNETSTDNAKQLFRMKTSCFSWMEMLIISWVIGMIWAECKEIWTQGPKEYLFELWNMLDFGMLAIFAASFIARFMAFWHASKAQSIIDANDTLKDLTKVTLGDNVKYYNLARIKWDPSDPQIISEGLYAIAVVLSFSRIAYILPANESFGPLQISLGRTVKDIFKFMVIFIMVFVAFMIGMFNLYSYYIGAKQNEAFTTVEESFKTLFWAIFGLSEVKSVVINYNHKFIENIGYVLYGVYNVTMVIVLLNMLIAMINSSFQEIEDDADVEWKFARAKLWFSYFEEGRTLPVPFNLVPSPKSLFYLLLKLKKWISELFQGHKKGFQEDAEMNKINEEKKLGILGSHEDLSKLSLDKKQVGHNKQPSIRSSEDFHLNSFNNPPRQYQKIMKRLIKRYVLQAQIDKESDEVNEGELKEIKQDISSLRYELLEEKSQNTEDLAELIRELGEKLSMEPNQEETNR
Assay: Evaluation of TRPC6 channel inhibitory activity (1), FLIPR Calcium 5 Assay Kit, OAG stimulation (Compound Nos. 1-1293)
Type: cell-based
Details: Human TRPC6 stably-expressing cells, OAG 30 μM, FLIPR Calcium 5 Assay Kit; read-out: Inhibitory activity (pIC50 class) (converted)
How it was run: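 The FLIPR signal is maximum fluorescence after 30 μM OAG minus minimum before compound, measured in a human TRPC6 stable line loaded with Calcium 5 dye. Compounds were preincubated 20 min. pIC50 came from four-parameter logistic fitting of inhibition rates and is given as symbol ranges.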

Compound	IC50
Cn1nc(C2CC2)cc1Oc1cc(C#N)ccc1-c1ccc(C2CNCCO2)cn1 (stereo not shown) [compound 427, 3-(5-cyclopropyl-2-methylpyrazol-3-yl)oxy-4-(5-morpholin-2-ylpyridin-2-yl)benzonitrile]	10 to 1000 nM
COC(C)(C)CN(C)c1cc(Oc2cc(C#N)ccc2-c2ncc(CN)cn2)n(C)n1 [compound 867, 4-[5-(aminomethyl)pyrimidin-2-yl]-3-[5-[(2-methoxy-2-methylpropyl)-methylamino]-2-methylpyrazol-3-yl]oxybenzonitrile]	> 1000 nM
N#Cc1ccc(-c2ccc(CCN)cn2)c(Oc2cnnc(-c3ccccc3)c2)c1 [Compound 103, 4-[5-(2-aminoethyl)pyridin-2-yl]-3-(6-phenylpyridazin-4-yl)oxybenzonitrile]	10 to 1000 nM
COCc1cn(Cc2cc(C#N)ccc2-c2ccc(CCN)cc2)cn1 [compound 1118, 4-[4-(2-aminoethyl)phenyl]-3-[[4-(methoxymethyl)imidazol-1-yl]methyl]benzonitrile]	> 1000 nM
Cn1nc(C2CC2)cc1Oc1cc(C#N)ccc1-c1ccc(CN2CCNCC2=O)cn1 [compound 778, 3-(5-cyclopropyl-2-methylpyrazol-3-yl)oxy-4-[5-[(2-oxopiperazin-1-yl)methyl]pyridin-2-yl]benzonitrile]	> 1000 nM
Cc1cc(Oc2cc(C#N)ccc2-c2ncc(CCN)cn2)cc(-c2nccs2)n1 [compound 595, 4-[5-(2-aminoethyl)pyrimidin-2-yl]-3-[2-methyl-6-(1,3-thiazol-2-yl)pyridin-4-yl]oxybenzonitrile]	10 to 1000 nM
N#Cc1ccc(-c2ncc(CN)cn2)c(Cn2cc(-c3ccccc3)nn2)c1 [compound 1168, 4-[5-(aminomethyl)pyrimidin-2-yl]-3-[(4-phenyltriazol-1-yl)methyl]benzonitrile]	10 to 1000 nM
Cn1nc(C2CC2)cc1Oc1cc(C#N)ccc1-c1cc(CN)cn2ccnc12 [compound 736, 4-[6-(aminomethyl)imidazo[1,2-a]pyridin-8-yl]-3-(5-cyclopropyl-2-methylpyrazol-3-yl)oxybenzonitrile]	10 to 1000 nM
NCCc1cnc(-c2ccc(F)cc2Oc2cnn(CC(F)(F)F)c2)nc1 [compound 1019, 2-[2-[4-fluoro-2-[1-(2,2,2-trifluoroethyl)pyrazol-4-yl]oxyphenyl]pyrimidin-5-yl]ethanamine]	10 to 1000 nM
N#Cc1ccc(-c2ccc(C(O)CN)cc2)c(Cn2cnc(-c3ccccc3)c2)c1 (stereo not shown) [compound 1129, 4-[4-(2-amino-1-hydroxyethyl)phenyl]-3-[(4-phenylimidazol-1-yl)methyl]benzonitrile]	< 10 nM
Cn1nc(C2CCCO2)cc1Oc1cc(C#N)ccc1-c1ncc(CCN)cn1 (stereo not shown) [compound 483, 4-[5-(2-aminoethyl)pyrimidin-2-yl]-3-[2-methyl-5-(oxolan-2-yl)pyrazol-3-yl]oxybenzonitrile]	< 10 nM
Cn1nc(-c2cncnc2)cc1Oc1cc(C#N)ccc1-c1ncc(CN)cn1 [compound 930, 4-[5-(aminomethyl)pyrimidin-2-yl]-3-(2-methyl-5-pyrimidin-5-ylpyrazol-3-yl)oxybenzonitrile]	10 to 1000 nM
Cc1nn(CC(C)(C)C)cc1Oc1cc(C#N)ccc1-c1ncc(CCN)cn1 [compound 937, 4-[5-(2-aminoethyl)pyrimidin-2-yl]-3-[1-(2,2-dimethylpropyl)-3-methylpyrazol-4-yl]oxybenzonitrile]	< 10 nM
Cn1nc(-c2ccccc2)cc1Oc1cc(C#N)ccc1-c1ccc([C@H](O)CN)cn1 [compound 366, 4-[5-[(1S)-2-amino-1-hydroxyethyl]pyridin-2-yl]-3-(2-methyl-5-phenylpyrazol-3-yl)oxybenzonitrile]	< 10 nM
N#Cc1ccc(-c2ncc(CN)cn2)c(Oc2ccc(N3C4CCC3CC4)nc2)c1 [compound 753, 4-[5-(aminomethyl)pyrimidin-2-yl]-3-[6-(7-azabicyclo[2.2.1]heptan-7-yl)pyridin-3-yl]oxybenzonitrile]	> 1000 nM
Cn1nc(C2CC2)cc1Oc1cc(C#N)ccc1-n1cc2c(n1)CCNC2 [compound 776, 3-(5-cyclopropyl-2-methylpyrazol-3-yl)oxy-4-(4,5,6,7-tetrahydropyrazolo[4,3-c]pyridin-2-yl)benzonitrile]	> 1000 nM
CC(C)Cn1cc(Cc2cc(F)ccc2-c2ncc(CCN)cn2)cn1 [compound 1222, 2-[2-[4-fluoro-2-[[1-(2-methylpropyl)pyrazol-4-yl]methyl]phenyl]pyrimidin-5-yl]ethanamine]	10 to 1000 nM
Cc1cc(Oc2cc(C#N)ccc2-c2ncc(CCN)cn2)cc(N2CC3CCC(C2)O3)n1 [compound 454, 4-[5-(2-aminoethyl)pyrimidin-2-yl]-3-[2-methyl-6-(8-oxa-3-azabicyclo[3.2.1]octan-3-yl)pyridin-4-yl]oxybenzonitrile]	< 10 nM
Cn1nc(C2CC2)cc1Oc1cc(F)ccc1-c1ccc(CN)cn1 [compound 1016, [6-[2-(5-cyclopropyl-2-methylpyrazol-3-yl)oxy-4-fluorophenyl]pyridin-3 - yl]methanamine]	10 to 1000 nM

Continued, values first:

IC50	Compound
> 1000 nM	Cc1cc(Oc2cc(C#N)ccc2-c2ccc(N3CC[C@H](N)C3=O)cn2)cc(N2CCOCC2)n1 [compound 565, 4-[5-[(3S)-3-amino-2-oxopyrrolidin-1-yl]pyridin-2-yl]-3-(2-methyl-6-morpholin-4-ylpyridin-4-yl)oxybenzonitrile]
10 to 1000 nM	Cc1nc(Oc2cc(C#N)ccc2-c2ncc(CN)cn2)cc(OC(C)C)n1 [compound 896, 4-[5-(aminomethyl)pyrimidin-2-yl]-3-(2-methyl-6-propan-2-yloxypyrimidin-4-yl)oxybenzonitrile]
10 to 1000 nM	Cc1nc(Oc2cc(C#N)ccc2-n2cc([C@@H](O)CN)cn2)cc(-c2cccc(C(F)(F)F)c2)n1 [compound 353, 4-[4-[(1R)-2-amino-1-hydroxyethyl]pyrazol-1-yl]-3-[2-methyl-6-[3-(trifluoromethyl)phenyl]pyrimidin-4-yl]oxybenzonitrile]
10 to 1000 nM	Cc1nc(Oc2cc(C#N)ccc2-c2ccc(CCN)cc2)cc(-c2ccn(C)c2)n1 [Compound 29, 4-[4-(2-aminoethyl)phenyl]-3-[2-methyl-6-(1-methylpyrrol-3-yl)pyrimidin-4-yl]oxybenzonitrile]
> 1000 nM	Cc1nc(Oc2cc(C#N)ccc2-n2cnc(C(O)CN)c2)cc(N2CCOCC2)n1 (stereo not shown) [Compound 169, 4-[4-(2-amino-1-hydroxyethyl)imidazol-1-yl]-3-(2-methyl-6-morpholin-4-ylpyrimidin-4-yl)oxybenzonitrile]
> 1000 nM	Cc1cc(Oc2cc(C#N)ccc2-c2ccc(CN)nn2)cc(N2CCOCC2)n1 [compound 871, 4-[6-(aminomethyl)pyridazin-3-yl]-3-(2-methyl-6-morpholin-4-ylpyridin-4-yl)oxybenzonitrile]
10 to 1000 nM	Cc1nc(Oc2cc(C#N)ccc2-n2cc(C(O)CN)cn2)cc(N2CCOCC2)n1 (stereo not shown) [Compound 136, 4-[4-(2-amino-1-hydroxyethyl)pyrazol-1-yl]-3-(2-methyl-6-morpholin-4-ylpyrimidin-4-yl)oxybenzonitrile]
10 to 1000 nM	Cc1nc(Oc2cc(C#N)ccc2-c2ncc(CN)cn2)cc(N(C)CC2CC2)n1 [compound 796, 4-[5-(aminomethyl)pyrimidin-2-yl]-3-[6-[cyclopropylmethyl(methyl)amino]-2-methylpyrimidin-4-yl]oxybenzonitrile]
< 10 nM	Cc1nc(Oc2cc(C#N)ccc2-c2ccc(C(O)CN)c(F)c2)cc(N2CCOCC2)n1 (stereo not shown) [Compound 149, 4-[4-(2-Amino-1-hydroxyethyl)-3-fluorophenyl]-3-(2-methyl-6-morpholin-4-ylpyrimidin-4-yl)oxybenzonitrile]
10 to 1000 nM	Cc1nc(Oc2cc(C#N)ccc2-c2ccc(CCN)nc2)cc(N2CCOCC2)n1 [Compound 74, 4-[6-(2-aminoethyl)pyridin-3-yl]-3-(2-methyl-6-morpholin-4-ylpyrimidin-4-yl)oxybenzonitrile]
10 to 1000 nM	N#Cc1ccc(-c2ncc(CCN)cn2)c(Oc2cnnc(N3CCOCC3)c2)c1 [compound 620, 4-[5-(2-aminoethyl)pyrimidin-2-yl]-3-(6-morpholin-4-ylpyridazin-4-yl)oxybenzonitrile]
10 to 1000 nM	Cc1cc(Oc2cc(C#N)ccc2-c2ccc(C(N)CO)cn2)cc(N2CCOCC2)n1 (stereo not shown) [compound 412, 4-[5-(1-amino-2-hydroxyethyl)pyridin-2-yl]-3-(2-methyl-6-morpholin-4-ylpyridin-4-yl)oxybenzonitrile]
